We go through 13 molecules from patent US12583866B2, “Pyrido[2,3-b][1,4]oxazines or tetrahydropyrido[2,3-b][1,4]oxazepines as IAP antagonists” (BEIGENE, LTD., priority 2020, dated 2026).

Where a name gives a salt, the structure may show the parent alone.

Test [1] concerns the target T1, recombinant human cIAP2-BIR3 protein (Homo sapiens, UniProt Q13489).
T1 construct: recombinant human cIAP2-BIR3 protein; purchased Reaction biology APT-11-372
Description: Recombinant human c-IAP2-BIR3 biochemical assay (HTRF, peptide displacement). As to conditions: 3.7 nM cIAP2-BIR3, 3.7 nM AbuRPF-K(5-Fam)-NH2 peptide, read-out: Protein binding IC50 (nM) c-IAP2. Here is the method: II. Recombinant Human c-IAP2-BIR3 Biochemical Assay
(§1) Compounds disclosed herein were tested for blocking of recombinant human cIAP2-BIR3 protein (Cat: APT-11-372, Reaction biology) with its peptide in an assay based on Homogeneous Time Resolved Fluorescence. 3.7 nM recombinant human cIAP2-BIR3 protein was pre-incubated with a serial dilution of compounds disclosed herein (maximum concentration is 10 uM, 4-fold serially diluted, 10 points) at room temperature for 1 hour in an assay buffer containing 20 mM HEPES, pH 7.5, 50 mM NaCl, 0.005% Tween-20, 1 mM DTT. Then 3.7 nM AbuRPF-K(5-Fam)-NH2 (Cat: 709702, GL Biochem) was added to plate incubated at room temperature for 1 hour. Mab Anti-6His Tb cryptate Gold (Cat: 61HI2TLB, Cisbio Bioassays) was added to plate and further incubated at room temperature for 1 hour. The HTRF signals (ex337 nm, em520 nm/490 nm) were read on BMG PHERAstar FS instrument. The inhibition percentage of cIAP2-BIR3 interaction with its peptide in presence of increasing concentrations of compounds was calculated based on the ratio of fluorescence at 520 nm to that at 490 nm. The IC50 for each compound was derived from fitting the data to the four-parameter logistic equation by Dotmatics and summarized in table 1.

In test [2] the target is T2, recombinant human cIAP1-BIR3 protein (Homo sapiens, UniProt Q13490).
T2 construct: recombinant human cIAP1-BIR3 protein; purchased Reaction biology APT-11-370
T2 sequence (Q13490 253-363 limits assumed): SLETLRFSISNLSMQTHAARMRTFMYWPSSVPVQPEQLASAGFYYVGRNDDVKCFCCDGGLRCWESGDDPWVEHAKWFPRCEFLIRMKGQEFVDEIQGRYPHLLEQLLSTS
Description: Recombinant human c-IAP1-BIR3 biochemical assay (HTRF, peptide displacement). As to conditions: 1.2 nM cIAP1-BIR3, 3 nM AbuRPF-K(5-Fam)-NH2 peptide, read-out: Protein binding IC50 (nM) c-IAP1. Here is the method: I. Recombinant human c-IAP1-BIR3 biochemical assay
as §1, with “human cIAP1-BIR3” for “human cIAP2-BIR3”, “(Cat: APT-11-370,” for “(Cat: APT-11-372,”, “Fluorescence. 1.2” for “Fluorescence. 3.7”, “Then 3” for “Then 3.7”, “nM AbuRPF-K (5-Fam)-NH2” for “nM AbuRPF-K(5-Fam)-NH2”, “of cIAP1-BIR3” for “of cIAP2-BIR3”

Test [3] deals with T3, recombinant human XIAP-BIR3 protein (Homo sapiens, UniProt P98170).
T3 construct: recombinant human XIAP-BIR3 protein; purchased Reaction biology APT-11-374
T3 sequence (P98170 241-356 limits assumed): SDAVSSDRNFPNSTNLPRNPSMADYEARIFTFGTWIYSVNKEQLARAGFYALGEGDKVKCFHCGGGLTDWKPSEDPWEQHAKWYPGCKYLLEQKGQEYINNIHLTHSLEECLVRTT
Description: Recombinant human XIAP-BIR3 biochemical assay (HTRF, peptide displacement). As to conditions: 3.7 nM XIAP-BIR3, 7.6 nM AbuRPF-K(5-Fam)-NH2 peptide, read-out: Protein binding IC50 (nM) XIAP. Here is the method:
III. Recombinant Human XIAP-BIR3 Biochemical Assay
as §1, with “human XIAP-BIR3” for “human cIAP2-BIR3”, “(Cat: APT-11-374,” for “(Cat: APT-11-372,”, “Then 7.6” for “Then 3.7”, “of XIAP-BIR3” for “of cIAP2-BIR3”

T1 sequence (Q13489 238-349 limits assumed): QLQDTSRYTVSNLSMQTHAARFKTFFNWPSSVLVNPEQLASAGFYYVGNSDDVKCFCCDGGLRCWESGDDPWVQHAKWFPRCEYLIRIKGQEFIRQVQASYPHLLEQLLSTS

For `C[C@@H]1CN(CC(=O)N2c3cc(Cc4ccc(F)cc4)cnc3OC[C@@H]2C2CCCCC2)[C@@H](CN2[C@H](C)COC[C@H]2C)CN1` [Compound 43, 1-((S)-2-cyclohexyl-7-(4-fluorobenzyl)-2,3-dihydro-1H-pyrido[2,3-b][1,4]oxazin-1-yl)-2-((2R,5R)-2-(((3R,5R)-3,5-dimethylmorpholino)methyl)-5-methylpiperazin-1-yl)ethan-1-one], the IC50 in test [1] stood at 0.27 nM; in test [2], 0.23 nM; in test [3], 23 nM.

For `CC[C@H]1COc2ncc(Cc3ccc(F)cc3)cc2N1C(=O)CN1C[C@@H](C)NC[C@@H]1CN1CCOC[C@H]1C` [Compound 28, 1-((S)-2-ethyl-7-(4-fluorobenzyl)-2,3-dihydro-1H-pyrido[2,3-b][1,4]oxazin-1-yl)-2-((2R,5R)-5-methyl-2-(((R)-3-methylmorpholino)methyl)piperazin-1-yl)ethan-1-one], the half-inhibitory concentration (IC50) in test [1] worked out at 0.62 nM; in test [2] it was 0.26 nM; in test [3], 14 nM.

For `C[C@@H]1CN(CC(=O)N2c3cc(Cc4ccc(F)cc4)c(C(=O)N4CC(O)C4)nc3OC[C@@H]2C)[C@@H](CN2[C@H](C)COC[C@H]2C)CN1` [Example 74, 2-((2R,5R)-2-(((3R,5R)-3,5-dimethylmorpholino)methyl)-5-methylpiperazin-1-yl)-1-((S)-7-(4-fluorobenzyl)-6-(3-hydroxyazetidine-1-carbonyl)-2-methyl-2,3-dihydro-1H-pyrido[2,3-b][1,4]oxazin-1-yl)ethan-1-one], the 50% inhibitory concentration (IC50) in test [1] worked out at 0.51 nM; in test [2] it was 0.25 nM; in test [3] it was 11 nM.

As to `C[C@@H]1CN(CC(=O)N2c3cc(Cc4ccc(F)cc4)c(C(=O)NCCN4CCOCC4)nc3OC[C@@H]2C)C(CN2[C@H](C)COC[C@H]2C)CN1` (stereo partly drawn) [Example 75, (5)-1-(2-((2R,5R)-2-(((3R,5R)-3,5-dimethylmorpholino)methyl)-5-methylpiperazin-1-yl)acetyl)-7-(4-fluorobenzyl)-2-methyl-N-(2-morpholinoethyl)-2,3-dihydro-1H-pyrido[2,3-b][1,4]oxazine-6-carboxamide], the 50% inhibitory concentration (IC50) was found to be 0.54 nM in test [1], 0.2 nM in test [2] and 6.5 nM in test [3].

Consider `C[C@@H]1CN(CC(=O)N2CCOc3nc(C4CC4)c(Cc4ccc(F)cc4)cc32)[C@@H](CN2CCOC[C@H]2C)CN1` [Compound 6, 1-(6-cyclopropyl-7-(4-fluorobenzyl)-2,3-dihydro-1H-pyrido[2,3-b][1,4]oxazin-1-yl)-2-((2R,5R)-5-methyl-2-(((R)-3-methylmorpholino)methyl)piperazin-1-yl)ethan-1-one], for which the concentration for half-maximal inhibition (IC50) was 3 nM in test [1], 1.1 nM in test [2] and 61 nM in test [3].

Consider `COCCNc1nc2c(cc1Cc1ccc(F)cc1)N(C(=O)CN1C[C@@H](C)NC[C@@H]1CN1[C@H](C)COC[C@H]1C)[C@@H](C)CO2` [Compound 108], for which the IC50 in test [1] was determined as 0.57 nM; in test [2] it was 0.16 nM; in test [3], 7.7 nM.

In the case of `C[C@@H]1CN(CC(=O)N2CCOc3nc(O)c(Cc4ccc(F)cc4)cc32)[C@@H](CN2CCOC[C@H]2C)CN1` [Compound 9, 1-(7-(4-fluorobenzyl)-6-hydroxy-2,3-dihydro-1H-pyrido[2,3-b][1,4]oxazin-1-yl)-2-((2R,5R)-5-methyl-2-(((R)-3-methylmorpholino)methyl)piperazin-1-yl)ethan-1-one], the values for the concentration for half-maximal inhibition (IC50) in test [1], in test [2] and in test [3] were 1.3 nM, 0.85 nM and 10 nM, respectively.

On to `C[C@@H]1CN(CC(=O)N2CCOc3nc(C(N)=O)c(Cc4ccc(F)cc4)cc32)[C@@H](CN2CCOC[C@H]2C)CN1` [Compound 3, 7-(4-fluorobenzyl)-1-(2-((2R,5R)-5-methyl-2-(((R)-3-methylmorpholino)methyl)piperazin-1-yl)acetyl)-2,3-dihydro-1H-pyrido[2,3-b][1,4]oxazine-6-carboxamide formate], for which the IC50 was 3.2 nM in test [1], 1.5 nM in test [2] and 23 nM in test [3].

With `CC[C@@H]1COCCN1C[C@H]1CN[C@H](C)CN1CC(=O)N1c2cc(Cc3ccc(F)cc3)c(CO)nc2OC[C@@H]1C` [Compound 51, 2-((2R,5R)-2-(((R)-3-ethylmorpholino)methyl)-5-methylpiperazin-1-yl)-1-((S)-7-(4-fluorobenzyl)-6-(hydroxymethyl)-2-methyl-2,3-dihydro-1H-pyrido[2,3-b][1,4]oxazin-1-yl)ethan-1-one], the IC50 in test [1] came out at 0.67 nM; in test [2], 0.3 nM; in test [3], 9.2 nM.

Regarding `C[C@@H]1CN(CC(=O)N2c3cc(Cc4ccc(F)cc4)c(C(=O)NCCN4CCN(C)CC4)nc3OC[C@@H]2C)[C@@H](CN2[C@H](C)COC[C@H]2C)CN1` [Compound 99, (S)-1-(2-((2R,5R)-2-(((3R,5R)-3,5-dimethylmorpholino)methyl)-5-methylpiperazin-1-yl)acetyl)-7-(4-fluorobenzyl)-2-methyl-N-(2-(4-methylpiperazin-1-yl)ethyl)-2,3-dihydro-1H-pyrido[2,3-b][1,4]oxazine-6-carboxamide], the half-inhibitory concentration (IC50) turned out to be 0.43 nM in test [1], 0.16 nM in test [2] and 12.4 nM in test [3].

In the case of `C[C@@H]1CN(CC(=O)N2c3cc(Cc4ccc(F)cc4)c(CO)nc3OC[C@@H]2C)[C@@H](CN2CCOC[C@@H]2C(F)(F)F)CN1` [Compound 91B, 1-((S)-7-(4-fluorobenzyl)-6-(hydroxymethyl)-2-methyl-2,3-dihydro-1H-pyrido[2,3-b][1,4]oxazin-1-yl)-2-((2R,5R)-5-methyl-2-(((R)-3-(trifluoromethyl)morpholino)methyl)piperazin-1-yl)ethan-1-one], the values for the half-inhibitory concentration (IC50) in test [1], in test [2] and in test [3] were 108 nM, 47 nM and 543 nM, respectively.

Consider `COC[C@H]1COc2nc(CO)c(Cc3ccc(F)cc3)cc2N1C(=O)CN1C[C@@H](C)NC[C@@H]1CN1[C@H](C)COC[C@H]1C` [Compound 58, 2-((2R,5R)-2-(((3R,5R)-3,5-dimethylmorpholino)methyl)-5-methylpiperazin-1-yl)-1-((S)-7-(4-fluorobenzyl)-6-(hydroxymethyl)-2-(methoxymethyl)-2,3-dihydro-1H-pyrido[2,3-b][1,4]oxazin-1-yl)ethan-1-one], for which the values for the IC50 in test [1], in test [2] and in test [3] were 0.17 nM, 0.11 nM and 9.5 nM, respectively.

With `C[C@@H]1CN(CC(=O)N2c3cc(Cc4ccc(F)cc4)c(C(=O)N[C@H]4CCOC4)nc3OC[C@@H]2C)[C@@H](CN2[C@H](C)COC[C@H]2C)CN1` [Example 79, (S)-1-(2-((2R,5R)-2-(((3R,5R)-3,5-dimethylmorpholino)methyl)-5-methylpiperazin-1-yl)acetyl)-7-(4-fluorobenzyl)-2-methyl-N—((S)-tetrahydrofuran-3-yl)-2,3-dihydro-1H-pyrido[2,3-b][1,4]oxazine-6-carboxamide], the results for the 50% inhibitory concentration (IC50) in test [1], in test [2] and in test [3] were 0.33 nM, 0.19 nM and 5.2 nM, respectively.
